Measurements published in patent US9573972B2, “Nurotoxic sterol glycosides” (priority 2008, dated 2017).

Tests used:
Cytochrome c oxidase = Cytochrome c oxidase histochemistry; format: in vivo, mouse; conditions: SG-fed vs control
Procedure: Tissue-mounted slides were processed for […] in a manner adapted from (Seligman et al., J. Cell. Biol. 1968; 38: 1-14) and Wong-Riley, (1979), Brain Res. 171, 11-28. Sections were rinsed in coplin jars for 15 minutes at RT in three changes of PBS and subsequently incubated with a media comprised of 50 mg of 3,3′-diaminobenzidine tetrahydrochloride (DAB) (DAB substrate system, Vector Laboratories, Burlingame, Calif., USA), 90 mL 0.1M phosphate buffer, 20 mg cytochrome c (type III, Sigma-Aldrich Co., Oakville, ON, Canada), and 4 g of sucrose in a dish submerged in a water bath maintained at 37° C. in the dark for 2 hours. The sections were monitored closely for the brown reaction product to appear within the tissue. Once a medium-brown color was achieved, slides were removed from the incubation media and rinsed for 15 minutes in three changes of PBS to stop the reaction. This was followed with a 2 minutes rinse in distilled water to remove residue from the slides. The slides were dried under a fume hood and cover-slipped with Entellen (Merck, Darmstadt, Germany).
The numbers of immunoreactive somata or inclusions were counted across the ventral horn of the spinal cord, across brain hemispheres, or per dorsal or ventral root with the 40× objective lens in a 600 μm/600 μm area within region perimeters defined by a mouse brain atlas (2001). For each animal, eight cross-sections per spinal cord or brain region were studied. […] For quantification of the level of mitochondrial activity (cytochrome c oxidase labelling) in the lumbar spinal cord or tyrosine hydroxylase immunoreactivity in the substantia nigra pars compacta and striatal sections, images captured using the Motic B5 Professional Series 3.0 microscope (Motic Instruments Inc., Richmond, ON) and analyzed using Motic B5 Professional, Motic Images Advanced 3.0 (Motic Instruments Inc., Richmond, ON) were scanned into a TIFF format file and analysed using the NIH Image J 1.37 software to measure density levels of antibody labelling. […]

male CD-1 mice = assay: Wire hang test, SG-fed mice; format: in vivo, mouse
Source text: Five-month old male CD-1 mice (30.1-35.7 g, 7.5 cm-8.8 cm) were purchased from Charles River (Wilmington, Mass.). Adult mice were chosen to mimic the mean age of onset of ALS-PDC (Kurland, L. T. (1988a) Trends Neurosci. 11, 51-4; Kurland, L. T., et al. (1994) Amyotrophic lateral sclerosis-parkinsonism-dementia complex on Guam: epidemiologic and etiological perspectives. 109-131). Thirty mice for the SG study were randomly divided into 2 groups (14 control and 16 experimental animals). All animals were housed singly in a virus-free barrier facility in a room maintained at 22° C. under a 12 hour light/dark cycle. The mice were provided ad libitum access to food and water.
The synthetic SG was mixed with finely ground Purina Chow mouse pellets (Mouse Diet™, Purina) to create the experimental pellets with a SG content of 1000 μg per pellet. Dry materials were blended with a sterile silicon spatula. For every 5 g of standard feed, 2.5 mL of doubly-distilled water (dd)H2O was added and the dough was kneaded and round up into pellets. A single sterol glucoside containing pellet was placed in the feeding tray each morning before the addition of regular mouse chow (ad libitum). All experimental pellets were entirely consumed by the mice each day. Control mice were fed standard mouse chow pellets of identical weight with no additives. SG feeding was conducted daily for 15 weeks and mice were behaviorally monitored until sacrifice at 35 weeks (time point 1) or 52 weeks (time point 2).
Wire hang: Neuromuscular strength was tested by the wire hang (or hanging wire) test (Wilson, J., et al. (2003d) Neuromolecular Med. 3, 105-18; Wilson, J. M., et al. (2004c) Neuroimage. 23, 336-43; Wilson, J. M., et al. (2005) Soc Neurosci. Abstr. online; Tabata, R. C., et al. (2008) Neuromolecular Med. 10, 24-39). Both balance and grip strength are required for a mouse to keep its body suspended (Crawley, 2000). […] The latency to fall off the wire (maximum 60 seconds) (Sango et al., 1996) was measured from the moment the wire apparatus was inverted (180°). […]

Compound: CC[C@H](/C=C/[C@@H](C)[C@H]1CC[C@H]2[C@@H]3CC=C4C[C@@H](O[C@@H]5O[C@H](CO)[C@@H](O)[C@H](O)[C@H]5O)CC[C@]4(C)[C@H]3CC[C@]12C)C(C)C [SG, Stigmasterol β-D-Glucopyranoside]
- Cytochrome c oxidase activity (Cytochrome c oxidase; Time-point 1 (35 wk)): (ns)
- Cytochrome c oxidase activity (Cytochrome c oxidase; Time-point 2 (52 wk)): (ns)
- Cytochrome c oxidase activity, difference between groups (Cytochrome c oxidase; at 35 or 52 weeks): no significant differences
- Increase in the time between inversion of the apparatus and falling (male CD-1 mice; SG fed mice, control group showed an increase): did not
- Wirehang (male CD-1 mice; SG-fed vs control, Time-point 2 (52 wk)): Wirehang* (*p < 0.05)
- Wirehang performance (male CD-1 mice; SG-fed vs control, prior to 35 weeks): decline in performance
